Experimental data taken from ChEMBL document CHEMBL1133872, “Modelling studies of the active site of human sorbitol dehydrogenase: an approach to structure-based inhibitor design of the enzyme” (Bioorg Med Chem Lett, 2001).

Molecular target: T1, Sorbitol dehydrogenase (Homo sapiens, UniProt Q00796)
T1 sequence (Q00796 whole entry): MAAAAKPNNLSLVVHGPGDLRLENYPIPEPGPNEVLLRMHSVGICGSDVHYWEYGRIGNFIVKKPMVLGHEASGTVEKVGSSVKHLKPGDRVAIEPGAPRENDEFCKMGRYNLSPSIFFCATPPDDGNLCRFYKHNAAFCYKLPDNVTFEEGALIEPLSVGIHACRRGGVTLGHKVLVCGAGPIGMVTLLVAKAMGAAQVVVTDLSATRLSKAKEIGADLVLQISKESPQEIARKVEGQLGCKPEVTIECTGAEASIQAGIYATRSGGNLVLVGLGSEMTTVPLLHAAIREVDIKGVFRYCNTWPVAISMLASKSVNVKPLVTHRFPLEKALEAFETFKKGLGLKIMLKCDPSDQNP
Experiment: Concentration required for inhibitory activity against human sorbitol dehydrogenase (SDH)

IC50: 1000 nM
SMILES: CN(C)S(=O)(=O)N1CCN(c2ccnc(CO)n2)CC1
